Results as given in patent US20040253266A1, “Biological compositions and methods for treatment of esophageal cancer” (priority 2003, published 2004).

Key:
[1] = system: esophageal cancer; experiment: Wistar rat model of esophageal cancer, survival over 6 months; format: in vivo, Wistar rats; conditions: for Number of live animals remaining in the groups after 30 days of treatment: 30 rats per group
Description: The following example illustrates the benefit of a biological composition of the invention in a Wistar rat model of original position engrafted human esophageal cancer. The survival time of rats after tumor injection and treatment was studied.
(§1) The oral composition comprising 10^8 cells per ml of activated and conditioned yeast cells of the strain Saccharomyces cerevisiae Hansen strain AS2.375 was prepared by the methods described in Section 5.1 and subsections therein.
The animals were prepared in a similar manner as described in Section 6.1.
The rats that were fed with MBNA for 30 days were divided into 4 experimental groups of ten rats per group and one control group. The four experimental groups were triplicated (i.e., using a total of 120 rats in the experimental groups). In group 2AY, the rats received 1.5 ml of the biological composition in two doses per day. In group 2NY, the rats received 1.5 ml of the untreated yeast cells in two doses per day. […] In group 2CK1, the rats received 1.5 ml of physiological saline in two doses per day.
The rats received the biological compositions, untreated yeast cells, VDS or saline on the same day as the tumor cells were transplanted. The rats in group 2CK2 also started receiving saline on the same day as the other four groups. […] The rats were observed over 6 months from the day of tumor inoculation and survival was recorded. The weight of the rats, the weight of the esophagus, and the weight of the tumor were determined by standard techniques.

[2] = system: esophageal cancer; experiment: Wistar rat model of human esophageal cancer (MBNA-induced), tumor growth; format: in vivo, Wistar rats; conditions: 31st day, after 30 days treatment; AY/NY 1.5 ml per day oral, VDS 3.0 mg/kg i.v. once a week
Description: as §1
The four experimental groups were triplicated (i.e., using a total of 120 rats in the experimental groups).

[3] = system: esophageal tumor SGA-73 cells; experiment: TA1 mouse model of human esophageal cancer (SGA-73 cells s.c.), tumor growth; format: in vivo, TA1 mice; conditions: 31st day, after 30 days treatment; AY/NY 0.3 ml per day oral, CTX 30 mg/kg per day s.c.
Description: as §1
The mice injected with tumor cells were kept for 3 days and then divided into 4 experimental groups of ten mice per group and one control group. The four experimental groups were triplicated (i.e., using a total of 120 mice in the experimental groups).
(§2) The mice received the biological compositions, untreated yeast cells, CTX or saline on the same day as the tumor cells were transplanted. The mice in group CK2 also started receiving saline on the same day as the other four groups. The biological compositions, untreated yeast cells and saline were administered orally by a feeding tube and the CTX by subcutaneous injection for 30 consecutive days.

[4] = system: esophageal tumor SGA-73 cells; experiment: TA1 mouse model of human esophageal cancer (SGA-73 cells), survival over 6 months; format: in vivo, TA1 mice; conditions: for Number of live animals remaining in the groups after 30 days of treatment: 30 mice per group
Description: The survival time of mice after tumor injection and treatment was studied.
as §1
The animals were prepared in a similar manner as described in Section 8.1.
The mice injected with tumor cells were kept for 3 days and then divided into 4 experimental groups of ten mice per group and one control group. The four experimental groups were triplicated (i.e., using a total of 120 mice in the experimental groups). In group 2AY, the mice received 0.5 ml of the biological composition once per day. In group 2NY, the mice received 0.5 ml of the untreated yeast cells once per day. In group 2CTX, the mice were injected subcutaneously with 45 mg of cyclophosphamide (CTX) per kg body weight per day. In group 2CK1, the mice received 0.5 ml of physiological saline once per day.
as §2, with “2CK2” for “CK2”, “days. The mice were observed over 6 months from the day of tumor inoculation and survival was recorded. The weight of the mice and the weight of the tumor were determined by standard techniques.” for “days.”

[5] = 0 month after cessation of treatment
[6] = 1 month after cessation of treatment
[7] = 2 months after cessation of treatment
[8] = 3 months after cessation of treatment
[9] = 4 months after cessation of treatment
[10] = 5 months after cessation of treatment
[11] = 6 months after cessation of treatment
[12] = rats that survived the 6 month observation
[13] = mice that survived the 6 month observation

SMILES: CC[C@]1(O)C[C@@H]2CN(CCc3c([nH]c4ccccc34)[C@@](C(=O)OC)(c3cc4c(cc3OC)N(C)[C@H]3[C@@](O)(C(N)=O)[C@H](O)[C@]5(CC)C=CCN6CC[C@]43[C@@H]65)C2)C1 [VDS, vindesine]
- Number of live animals remaining in the groups after 30 days of treatment [1, 5]: 30
- Number of live animals remaining in the groups after 30 days of treatment [1, 6]: 30
- survival time of rats ([1]; 2AY/2NY 1.5 ml per day oral, 2VDS 3.0 mg/kg per week for four weeks): all died after five months
- Number of live animals remaining in the groups after 30 days of treatment [1, 7]: 30
- Number of live animals remaining in the groups after 30 days of treatment [1, 8]: 30
- Number of live animals remaining in the groups after 30 days of treatment [1, 9]: 21
- Number of live animals remaining in the groups after 30 days of treatment [1, 10]: 3
- Number of live animals remaining in the groups after 30 days of treatment [1, 11]: 0
- mean weight of esophagus and standard deviation [1, 12]: all animals dead
- mean weight of rats and standard deviation [1, 12]: all animals dead
- mean weight of tumor nodules and standard deviation [1, 12]: all animals dead
- mean weight of rats and standard deviation [2]: 173 ± 15 g
- mean weight of tumor nodules and standard deviation [2]: 281 ± 31 mg

SMILES: O=P1(N(CCCl)CCCl)NCCCO1 (stereo not shown) [CTX, cyclophosphamide]
- mean weight of mice and standard deviation [3]: 18.2 ± 2.8 g
- mean weight of tumor nodules and standard deviation [3]: 384 ± 31 mg
- Number of live animals remaining in the groups after 30 days of treatment [4, 5]: 30
- Number of live animals remaining in the groups after 30 days of treatment [4, 6]: 30
- survival time of mice ([4]; 2AY/2NY 0.5 ml per day oral, 2CTX 45 mg/kg per day s.c.): all died after four months
- Number of live animals remaining in the groups after 30 days of treatment [4, 7]: 28
- Number of live animals remaining in the groups after 30 days of treatment [4, 8]: 22
- Number of live animals remaining in the groups after 30 days of treatment [4, 9]: 18
- Number of live animals remaining in the groups after 30 days of treatment [4, 10]: 0
- Number of live animals remaining in the groups after 30 days of treatment [4, 11]: 0
- mean weight of mice and standard deviation [4, 13]: all animals dead
- mean weight of tumor nodules and standard deviation [4, 13]: all animals dead
